Values after ≈ are worked out from the molar mass of the structure shown.
Key:
[1] = test system: carbapenemase producing K. pneumoniae; assay: MIC by broth micro-dilution (CLSI), carbapenemase producing K. pneumoniae; assay type: cell-based, Klebsiella pneumoniae; details: Klebsiella pneumoniae, ATCCBAA1705, KPC-2 K. pneumoniae ATCC BAA-1705; read-out: MIC
[2] = test system: carbapenem sensitive Escherichia coli; assay: MIC by broth micro-dilution (CLSI), carbapenem sensitive E. coli; assay type: cell-based; details: Escherichia coli, ATCC25922, ESBL −ve E. coli ATCC25922; read-out: MIC
[3] = test system: methicillin-sensitive Staphylococcus aureus; assay: MIC by broth micro-dilution (CLSI), methicillin-sensitive S. aureus; assay type: cell-based; details: Staphylococcus aureus, ATCC 29213 / MSSA, MSSA S. aureus ATCC29213; read-out: MIC
[4] = test system: carbapenem sensitive Pseudomonas aeruginosa; assay: MIC by broth micro-dilution (CLSI), carbapenem sensitive P. aeruginosa; assay type: cell-based; details: Pseudomonas aeruginosa, ATCC27853, Meropenem susceptible P. aeruginosa ATCC27853; read-out: MIC
[5] = test system: extended spectrum β lactamase (ESBL) SHV18 producing Klebsiella pneumoniae; assay: MIC by broth micro-dilution (CLSI), ESBL SHV18 producing K. pneumoniae; assay type: cell-based; details: Klebsiella pneumoniae, ATCC700603, 22 h, ESBL +ve (SHV-18) K. pneumoniae ATCC700603; read-out: MIC

Structure (SMILES)	MIC [1]	MIC [2]	MIC [3]	MIC [4]	MIC [5]
CNCC(=O)N[C@H](C)[C@H]1C(=O)N2C(C(=O)O)=C(S[C@@H]3CN[C@H](C(=O)N4CCN(C(=N)N)CC4)C3)[C@H](C)[C@H]12 [Example 361, (4R,5S,6R)-3-((3S,5S)-5-(4-carbamimidoylpiperazine-1-carbonyl)pyrrolidin-3-ylthio)-4-methyl-6-((R)-1-(2-(methylamino)acetamido)ethyl)-7-oxo-1-azabicyclo[3.2.0]hept-2-ene-2-carboxylic acid]	2 µg/mL (≈ 3.73 µM)	1 µg/mL (≈ 1.86 µM)	8 µg/mL (≈ 14.9 µM)	2 µg/mL (≈ 3.73 µM)	4 µg/mL (≈ 7.45 µM)
C[C@@H](NC(=O)[C@@H]1CCCN1)[C@H]1C(=O)N2C(C(=O)O)=C(S[C@@H]3CN[C@H](C(=O)N4CC[C@@H](N)C4)C3)[C@H](C)[C@H]12 [Example 205]	4 µg/mL (≈ 7.68 µM)	1 µg/mL (≈ 1.92 µM)	32 µg/mL (≈ 61.5 µM)	8 µg/mL (≈ 15.4 µM)	2 µg/mL (≈ 3.84 µM)
CNC(=O)C(=O)N[C@H](C)[C@H]1C(=O)N2C(C(=O)O)=C(S[C@@H]3CN[C@H](C(=O)N(C)C)C3)[C@H](C)[C@H]12 [Example 75]	16 µg/mL (≈ 34.2 µM)	1 µg/mL (≈ 2.14 µM)	4 µg/mL (≈ 8.56 µM)	> 128 µg/mL	8 µg/mL (≈ 17.1 µM)
C[C@@H](NC(=O)[C@@H]1CCCN1)[C@H]1C(=O)N2C(C(=O)O)=C(S[C@@H]3CN[C@H](CNS(N)(=O)=O)C3)[C@H](C)[C@H]12 [Example 225]	2 µg/mL (≈ 3.87 µM)	1 µg/mL (≈ 1.94 µM)	16 µg/mL (≈ 31 µM)	64 µg/mL (≈ 124 µM)	32 µg/mL (≈ 61.9 µM)
CNCC(=O)N[C@H](C)[C@H]1C(=O)N2C(C(=O)O)=C(S[C@@H]3CN[C@H](C(=O)N4CCNCC4)C3)[C@H](C)[C@H]12 [Example 168]	2 µg/mL (≈ 4.04 µM)	1 µg/mL (≈ 2.02 µM)	16 µg/mL (≈ 32.3 µM)	2 µg/mL (≈ 4.04 µM)	2 µg/mL (≈ 4.04 µM)
C[C@@H](NC(=O)C(F)F)[C@H]1C(=O)N2C(C(=O)O)=C(S[C@@H]3CN[C@H](C(=O)N4CCN(C(=N)N)CC4)C3)[C@H](C)[C@H]12 [Example 157]	4 µg/mL (≈ 7.36 µM)	1 µg/mL (≈ 1.84 µM)	2 µg/mL (≈ 3.68 µM)	4 µg/mL (≈ 7.36 µM)	8 µg/mL (≈ 14.7 µM)
C[C@@H](NC(=O)C(F)F)[C@H]1C(=O)N2C(C(=O)O)=C(S[C@@H]3CN[C@H](C(=O)N4CC[C@H](NC=N)C4)C3)[C@H](C)[C@H]12 [Example 184]	8 µg/mL (≈ 15.1 µM)	0.5 µg/mL (≈ 0.946 µM)	2 µg/mL (≈ 3.78 µM)	4 µg/mL (≈ 7.57 µM)	4 µg/mL (≈ 7.57 µM)
C[C@@H](NC(=O)C(F)F)[C@H]1C(=O)N2C(C(=O)O)=C(S[C@H]3C[C@@H](C(=O)N(C)C)N(C=N)C3)[C@H](C)[C@H]12 [Example 108]	16 µg/mL (≈ 32.8 µM)	1 µg/mL (≈ 2.05 µM)	2 µg/mL (≈ 4.1 µM)	128 µg/mL (≈ 263 µM)	4 µg/mL (≈ 8.2 µM)
C[C@@H](NC(=O)Cc1cccs1)[C@H]1C(=O)N2C(C(=O)O)=C(S[C@@H]3CN[C@H](C(=O)N(C)C)C3)[C@H](C)[C@H]12 [Example 5]	> 128 µg/mL	8 µg/mL (≈ 15.8 µM)	8 µg/mL (≈ 15.8 µM)	> 128 µg/mL	> 128 µg/mL
C[C@@H](NC(=O)C(F)F)[C@H]1C(=O)N2C(C(=O)O)=C(S[C@@H]3CN[C@H](C(=O)NCCN(C)C)C3)[C@H](C)[C@H]12 [Example 102]	8 µg/mL (≈ 15.9 µM)	2 µg/mL (≈ 3.97 µM)	2 µg/mL (≈ 3.97 µM)	64 µg/mL (≈ 127 µM)	8 µg/mL (≈ 15.9 µM)
C[C@@H](NC(=O)[C@H](N)CO)[C@H]1C(=O)N2C(C(=O)O)=C(S[C@@H]3CN[C@H](C(=O)N(C)C)C3)[C@H](C)[C@H]12 [Example 56]	16 µg/mL (≈ 34.1 µM)	8 µg/mL (≈ 17 µM)	64 µg/mL (≈ 136 µM)	64 µg/mL (≈ 136 µM)	16 µg/mL (≈ 34.1 µM)
C[C@@H](NC(=O)CN(C)C)[C@H]1C(=O)N2C(C(=O)O)=C(S[C@@H]3CN[C@H](C(=O)N4CC[C@@H](N)C4)C3)[C@H](C)[C@H]12 [Example 180]	32 µg/mL (≈ 62.9 µM)	4 µg/mL (≈ 7.86 µM)	128 µg/mL (≈ 252 µM)	16 µg/mL (≈ 31.5 µM)	32 µg/mL (≈ 62.9 µM)
C[C@@H](NC(=O)C[S+]([O-])C(F)F)[C@H]1C(=O)N2C(C(=O)O)=C(S[C@@H]3CN[C@H](C(=O)N(C)C)C3)[C@H](C)[C@H]12 (mixture of isomers) [Example 82]	8 µg/mL	1 µg/mL	8 µg/mL	128 µg/mL	2 µg/mL
C[C@@H](NC(=O)C(F)F)[C@H]1C(=O)N2C(C(=O)O)=C(S[C@@H]3CN[C@H](C(=O)N4CCNCC4)C3)[C@H](C)[C@H]12 [Example 120]	4 µg/mL (≈ 7.98 µM)	0.5 µg/mL (≈ 0.997 µM)	2 µg/mL (≈ 3.99 µM)	4 µg/mL (≈ 7.98 µM)	4 µg/mL (≈ 7.98 µM)
C[C@@H](NS(=O)(=O)C(F)(F)F)[C@H]1C(=O)N2C(C(=O)O)=C(S[C@@H]3CN[C@H](C(=O)N4CCOCC4)C3)[C@H](C)[C@H]12 [Example 29]	> 128 µg/mL	1 µg/mL (≈ 1.8 µM)	4 µg/mL (≈ 7.19 µM)	128 µg/mL (≈ 230 µM)	8 µg/mL (≈ 14.4 µM)
C[C@@H](NC(=O)C(F)F)[C@H]1C(=O)N2C(C(=O)O)=C(S[C@@H]3CNC(C[N+]4(C)CCCC4)C3)[C@H](C)[C@H]12 (some centres unmarked) [Example 80]	64 µg/mL	4 µg/mL	4 µg/mL	> 128 µg/mL	32 µg/mL
CNCC(=O)N[C@H](C)[C@H]1C(=O)N2C(C(=O)O)=C(S[C@@H]3CN[C@H](C(=O)N4CC[C@H](F)C4)C3)[C@H](C)[C@H]12 [Example 214]	16 µg/mL (≈ 32.2 µM)	4 µg/mL (≈ 8.04 µM)	32 µg/mL (≈ 64.3 µM)	> 128 µg/mL	32 µg/mL (≈ 64.3 µM)
CNC(=O)[C@@H]1C[C@H](SC2=C(C(=O)O)N3C(=O)[C@H]([C@@H](C)NC(=O)C(F)F)[C@H]3[C@H]2C)CN1 [Example 101]	4 µg/mL (≈ 8.96 µM)	0.5 µg/mL (≈ 1.12 µM)	2 µg/mL (≈ 4.48 µM)	64 µg/mL (≈ 143 µM)	1 µg/mL (≈ 2.24 µM)
CC(C)C[C@@H](N)C(=O)N[C@H](C)[C@H]1C(=O)N2C(C(=O)O)=C(S[C@@H]3CN[C@H](C(=O)N(C)C)C3)[C@H](C)[C@H]12 [Example 113]	16 µg/mL (≈ 32.3 µM)	4 µg/mL (≈ 8.07 µM)	16 µg/mL (≈ 32.3 µM)	> 128 µg/mL	32 µg/mL (≈ 64.6 µM)
CNCCN(C)C(=O)[C@@H]1C[C@H](SC2=C(C(=O)O)N3C(=O)[C@H]([C@@H](C)NC(=O)C(F)F)[C@H]3[C@H]2C)CN1 [Example 163]	4 µg/mL (≈ 7.94 µM)	1 µg/mL (≈ 1.99 µM)	1 µg/mL (≈ 1.99 µM)	8 µg/mL (≈ 15.9 µM)	4 µg/mL (≈ 7.94 µM)
C[C@@H](NC(=O)C(F)F)[C@H]1C(=O)N2C(C(=O)O)=C(S[C@@H]3CN[C@H](C(=O)N4CC[C@@H](NCC(N)=O)C4)C3)[C@H](C)[C@H]12 [Example 154]	8 µg/mL (≈ 14.3 µM)	1 µg/mL (≈ 1.79 µM)	4 µg/mL (≈ 7.16 µM)	64 µg/mL (≈ 115 µM)	2 µg/mL (≈ 3.58 µM)

The next lines start with the values.

MIC [1]	MIC [2]	MIC [3]	MIC [4]	MIC [5]	Structure (SMILES)
> 128 µg/mL	8 µg/mL (≈ 16.1 µM)	4 µg/mL (≈ 8.05 µM)	> 128 µg/mL	> 128 µg/mL	CC(C)C[C@H](O)C(=O)N[C@H](C)[C@H]1C(=O)N2C(C(=O)O)=C(S[C@@H]3CN[C@H](C(=O)N(C)C)C3)[C@H](C)[C@H]12 [Example 67]
4 µg/mL (≈ 7.74 µM)	0.5 µg/mL (≈ 0.968 µM)	16 µg/mL (≈ 31 µM)	32 to 64 µg/mL (≈ 61.9 to 124 µM)	1 µg/mL (≈ 1.94 µM)	C[C@@H](NS(C)(=O)=O)[C@H]1C(=O)N2C(C(=O)O)=C(S[C@@H]3CN[C@H](C(=O)N4CCC(O)CC4)C3)[C@H](C)[C@H]12 [Example 24]
4 µg/mL (≈ 7.45 µM)	1 µg/mL (≈ 1.86 µM)	32 µg/mL (≈ 59.6 µM)	8 µg/mL (≈ 14.9 µM)	8 µg/mL (≈ 14.9 µM)	C[C@@H](NC(=O)CN(C)C(=N)N)[C@H]1C(=O)N2C(C(=O)O)=C(S[C@@H]3CN[C@H](C(=O)N4CC[C@@H](N)C4)C3)[C@H](C)[C@H]12 [Example 230]
8 µg/mL (≈ 16.4 µM)	0.5 µg/mL (≈ 1.03 µM)	4 µg/mL (≈ 8.2 µM)	16 µg/mL (≈ 32.8 µM)	2 µg/mL (≈ 4.1 µM)	C[C@@H](NC(=O)C(F)F)[C@H]1C(=O)N2C(C(=O)O)=C(S[C@@H]3CN[C@H](C(=O)N4CC(N)C4)C3)[C@H](C)[C@H]12 [Example 131]
4 µg/mL	2 µg/mL	64 µg/mL	8 µg/mL	8 µg/mL	CNCC(=O)N[C@H](C)[C@H]1C(=O)N2C(C(=O)O)=C(S[C@@H]3CN[C@H](C(=O)N4CC[N+](C)(CCN)CC4)C3)[C@H](C)[C@H]12 [Example 222]
16 µg/mL (≈ 35.2 µM)	1 µg/mL (≈ 2.2 µM)	2 µg/mL (≈ 4.4 µM)	128 µg/mL (≈ 282 µM)	16 µg/mL (≈ 35.2 µM)	CCOC(=O)N[C@H](C)[C@H]1C(=O)N2C(C(=O)O)=C(S[C@@H]3CN[C@H](C(=O)N(C)C)C3)[C@H](C)[C@H]12 [Example 15]
4 µg/mL (≈ 8.82 µM)	2 µg/mL (≈ 4.41 µM)	64 µg/mL (≈ 141 µM)	8 µg/mL (≈ 17.6 µM)	4 µg/mL (≈ 8.82 µM)	CNCC(=O)N[C@H](C)[C@H]1C(=O)N2C(C(=O)O)=C(S[C@@H]3CN[C@H](C(=O)N(C)C)C3)[C@H](C)[C@H]12 [Example 112]
4 µg/mL (≈ 7.76 µM)	0.5 µg/mL (≈ 0.97 µM)	0.5 µg/mL (≈ 0.97 µM)	8 µg/mL (≈ 15.5 µM)	8 µg/mL (≈ 15.5 µM)	C[C@@H](NC(=O)C(F)F)[C@H]1C(=O)N2C(C(=O)O)=C(S[C@@H]3CN[C@H](C(=O)N4CCNC[C@@H]4C)C3)[C@H](C)[C@H]12 [Example 161]
> 128 µg/mL	1 µg/mL (≈ 1.82 µM)	2 µg/mL (≈ 3.63 µM)	> 128 µg/mL	2 µg/mL (≈ 3.63 µM)	C[C@@H](NC(=O)C(F)F)[C@H]1C(=O)N2C(C(=O)O)=C(S[C@@H]3CN[C@H](C(=O)N4CCS(=O)(=O)CC4)C3)[C@H](C)[C@H]12 [Example 49]
4 µg/mL (≈ 6.9 µM)	0.5 µg/mL (≈ 0.863 µM)	4 µg/mL (≈ 6.9 µM)	32 µg/mL (≈ 55.2 µM)	2 µg/mL (≈ 3.45 µM)	C[C@@H](NC(=O)C(F)F)[C@H]1C(=O)N2C(C(=O)O)=C(S[C@@H]3CN[C@H](C(=O)N4CC[C@H](NS(C)(=O)=O)C4)C3)[C@H](C)[C@H]12 [Example 110]

Source: US11180504B2 (ORCHID PHARMA LTD., priority 2016, dated 2021)
